Test results published in PMC6336494 (Nature communications, 2015).

Biological target: myeloperoxidase (MPO) (Homo sapiens, UniProt P05164)
Assay: guaiacol/H2O2 peroxidase activity assay with purified human MPO
Type: biochemical

Chain of myeloperoxidase (MPO) (P05164 165-273): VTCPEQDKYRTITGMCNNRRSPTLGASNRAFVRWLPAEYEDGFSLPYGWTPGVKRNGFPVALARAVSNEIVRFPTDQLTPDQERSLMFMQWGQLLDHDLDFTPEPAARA
Chain of myeloperoxidase (MPO) (P05164 279-745): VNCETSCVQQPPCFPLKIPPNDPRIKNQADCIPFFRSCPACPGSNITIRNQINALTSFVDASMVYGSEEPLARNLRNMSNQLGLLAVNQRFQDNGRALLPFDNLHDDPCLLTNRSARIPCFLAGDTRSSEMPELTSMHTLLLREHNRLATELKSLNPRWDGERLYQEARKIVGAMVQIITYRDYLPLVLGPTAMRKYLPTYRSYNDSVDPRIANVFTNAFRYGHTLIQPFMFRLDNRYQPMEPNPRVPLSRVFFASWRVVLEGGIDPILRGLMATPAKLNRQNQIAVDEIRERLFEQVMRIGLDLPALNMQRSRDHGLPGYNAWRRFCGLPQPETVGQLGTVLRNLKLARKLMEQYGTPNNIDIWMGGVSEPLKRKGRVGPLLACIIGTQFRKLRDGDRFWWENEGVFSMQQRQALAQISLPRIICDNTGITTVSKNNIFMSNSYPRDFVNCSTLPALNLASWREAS

## O=C(N[C@H]1COC(=O)[C@@H](NC(=O)c2cccc(O)c2O)COC(=O)[C@@H](NC(=O)c2cccc(O)c2O)COC1=O)c1cccc(O)c1O [enterobactin]
  IC50: ~1000 nM
